Measurements: patent publication US11884710B2, “Peptide compounds and methods of use in wound healing” (priority 2013, dated 2024)
Square brackets hold non-standard residues; d marks the D form. Peptide text beside a SMILES is read from it. PEG2 = NCCOCCOCCC(=O)O

Tests used:
[1] = test system: P. aeruginosa ATCC 27853; assay type: cell-based, Pseudomonas aeruginosa; conditions: Pseudomonas; inoculum 1×10^6 CFU/ml; 60 to 180 minute incubation
Experimental: (§1) In vitro bactericidal activity: The three peptide compounds BCC01-5RMP (SEQ ID NO:23), BCC002-5RMP (SEQ ID NO:21), and BCC003-5RMP (SEQ ID NO:22) were assayed for in vitro bactericidal activity against Pseudomonas aeruginosa, Escherichia coli, Salmonella typhimurium, and Acinetobacter baumannii. The starting inoculum for all experiments was 1×10^6 colony forming units (CFU)/ml. The CFU remaining at the end of 60 to 180 minute incubation was determined, and the data plotted as a log reduction in CFU/ml.
Table 4 further compares the activity of several other compounds, including the “5R” versions of BCC01, i.e., SEQ ID NO:20 (which comprises SEQ ID NO: 7 with five additional arginines), the “5R” version of BCC002 (i.e., SEQ ID NO:18, which comprises SEQ ID NO: 1 with five additional arginines), and the 5RMP versions of BCC01 (SEQ ID NO: 23) and BCC002 (SEQ ID NO: 21). The data generally indicate the superiority of BCC003-5RMP (SEQ ID NO:22) and BCC002-5RMP (SEQ ID NO: 21) and the superiority of the 5R or 5RMP versions of the peptide over the “AEEP only” peptide against P. aeruginosa.

[2] = test system: Escherichia coli; assay: In vitro bactericidal activity against Escherichia coli; assay type: cell-based; conditions: E. coli; inoculum 1×10^6 CFU/ml; 60 to 180 minute incubation
Experimental: as §1

[3] = test system: Salmonella typhimurium; assay: In vitro bactericidal activity against Salmonella typhimurium; assay type: cell-based; conditions: inoculum 1×10^6 CFU/ml, 60 to 180 minute incubation
Experimental: as §1

[4] = test system: Acinetobacter baumannii; assay: In vitro bactericidal activity against Acinetobacter baumannii; assay type: cell-based; conditions: inoculum 1×10^6 CFU/ml, 60 to 180 minute incubation
Experimental: as §1

[5] = test system: Pseudomonas LPS; assay: LPS binding, Limulus Amebocyte Lysate (LAL) assay; conditions: LAL method
Experimental: (§2) The well-characterized response of RAW264.7 macrophage cells was used to produce tumor necrosis-factor-alpha (TNF-α) in response to LPS to determine whether the peptides could dampen the release of this cytokine. […] Importantly, pre-treatment (3 hours prior to LPS addition) as well as post-treatment of the RAW264.7 cells (3 hours post LPS addition) with peptide dampened the cytokine release. […] The finding that the novel peptides bind and neutralize the effect of Pseudomonas LPS is of critical importance since this ensures that the novel therapeutic peptide compounds described herein will not only kill the bacteria, but will also neutralize the LPS endotoxin released by the bacteria which plays such an important role in the rapid progression of sepsis.
(§3) BCC01-5RMP (SEQ ID NO:23), BCC002-5RMP (SEQ ID NO:21), and BCC003-5RMP (SEQ ID NO:22) were tested for their ability to bind lipopolysaccharide (LPS) using the limulus amebocyte lysate method (LAL). […] There was no statistical difference in their ability to bind LPS using the LAL technique. The ability of the peptides to neutralize LPS was assessed by determining their ability to attenuate the release of tumor necrosis factor-alpha (TNF-α) from LPS-stimulated RAW264.7 cells (a mouse macrophage cell line). […] No significant differences were observed between the three peptides to neutralize LPS as measured by cytokine release. Peptides based on sequence 120-146 (SEQ ID NOS:28-31) also bind and neutralize Pseudomonas LPS.

[6] = test system: release of TNF-α from LPS-stimulated RAW264.7 cells; assay: LPS neutralization: TNF-α release from LPS-stimulated RAW264.7 cells; assay type: cell-based, mouse
Experimental: as §2, §3

[7] = test system: P. aeruginosa (ATCC 27853); assay: Mouse model of Pseudomonas (bacterial) keratitis; assay type: in vivo; conditions: C57/BL6 mice; topical peptide 0.25 to 0.75 mg/ml; 48 hours post-infection
Experimental: A circular wound was created on the mouse cornea by removing the epithelium and infected with 10^5 colony forming units (CFU) of P. aeruginosa (ATCC® 27853™ (American Type Culture Collection, Manassas, Va.)). Infected wounds were treated with saline (0.9% sodium chloride, vehicle control) or saline containing indicated concentrations of peptide every 15 minutes for 2 hours, then every 30 minutes for 3 hours on the first day. Infected wounds were treated twice on the second day and once on the third day. Mice were killed at 48 hours post-infection, and CFU/eye were quantified. The means were plotted and are representative of 5 to 9 mice per group. Mann Whitney test was performed for each group as compared to the saline control group. *P=0.014. In compound names such as BCC02-5RMP used herein, “R” represents arginine, and “MP” represents a small PEG molecule as defined elsewhere herein (such as, for example but not by way of limitation, “AEEP”).
(§4) A circular wound was created on the mouse cornea by removing the epithelium, and the wound was infected with 10^5 CFU of P. aeruginosa (ATCC® 27853™ (American Type Culture Collection, Manassas, Va.)). Infected wounds were treated with saline or saline containing indicated concentrations (2, 5, 10, and 20 mg/ml) of peptide every 30 minutes for 6 hours on the first day. Infected wounds were treated twice on the second day and once on the third day. Mice were killed at 48 hours post-infection, and the CFU/eye were quantified. The means are plotted and are representative of 5 mice per group. Mann Whitney test was performed for each group as compared to the saline control group. *P=0.015 and **P=0.097.
as §4, with “representative of 4 to 5 mice” for “representative of 5 mice”, “control group.” for “control group. *P=0.015 and **P=0.097.”
as §4, with “group. **P=0.0079 by” for “group.”, “test” for “test was performed for each group”, “group.” for “group. *P=0.015 and **P=0.097.”
A circular wound (2 mm) was created on the mouse cornea by removing the epithelium and infecting the wound with 10^5 CFU of P. aeruginosa (ATCC® 27853™ (American Type Culture Collection, Manassas, Va.)). Infected wounds were treated with saline or saline containing indicated concentrations of peptide every 15 minutes for 2 hours, then every 30 minutes for 3 hours on the first day. […] Mice were killed at 48 hours post-infection, and the colony forming units per eye (CFU/eye) were quantified. […]

[8] = test system: Pseudomonas clinical isolate B64; assay: BIOSCREEN C growth assay, peptide plus antibiotic combinations; assay type: cell-based, Pseudomonas aeruginosa
Experimental: FIGS. 28A and 28B show the effect of BCC002-5R-MP (SEQ ID NO:21) in combination with Cefotaxime on MIC using Pseudomonas clinical isolate B64. Cefotaxime (Cefo) and peptide combinations included a constant amount of Cefotaxime (2.81 μg/ml) with suboptimal amounts of peptide (0, 0.34, 1.01, and 3.04 μg/ml). […] FIG. 28B is a histogram showing Fractional area (FA), which is an indication of the MIC.
FIG. 29B is a histogram showing Fractional area (FA), which is an indication of the MIC.
FIGS. 30A and 30B show the effect of BCC02-5R-MP (SEQ ID NO:21) in combination with Levofloxacin (Levo) and peptide combinations included a constant amount of Levofloxacin (3.6 μg/ml) with suboptimal amounts of peptide (0, 0.34, 1.01, 3.04 μg/ml). […] FIG. 30B is a histogram showing Fractional area (FA), which is an indication of the MIC.
The peptide and antibiotics were set up in the wells of the microtiter plate at starting ratios of MIC equivalents of antibiotic:peptide at 3:1, 1:1, and 1:3. They were serially diluted to concentrations well below suboptimal/sublethal levels of the antibiotic and peptide. The organism was added (1×10^5 CFU/well), the BIOSCREEN C™ assay (Growth Systems USA, Piscataway, N.J.) was performed, and data was collected over 24 hours.

[9] = test system: PKCδ; assay: Immunofluorescence for PKCδ in HCEC monolayers; assay type: cell-based, human; conditions: PMA 1 μM; 15 minutes; scratched monolayers
Experimental: HCEC monolayers were grown to confluency and were scratched with a 10 μl pipette tip or left unscratched, and then the monolayers were treated for 15 minutes with (A-B) buffer, (C-D) PMA (1 μM), (E-F) 250 ng/ml CAP37, and (G-J) 500 ng/ml CAP37. Cells were stained for PKCδ (250 ng/ml; (A-H)), and PKCα (1 μg/ml; (I-J)) and detected using immunofluorescence (4 μg/ml, ALEXA FLUOR® 488 dye (Life Technologies Corp., Grand Island, N.Y.)). […] Scratched monolayers that were treated for 18 hours with CAP37 (250 ng/ml; (L)) or left untreated (K) were stained for PKCδ. […] Scale bars, 20 μm.
Immunofluorescence: HCECs and primary HCECs were cultured on Lab-Tek® II glass chamber slides (Nunc, Rochester, N.Y.) and starved overnight in basal media. For wounding studies, monolayers were scratched with a 10 μl pipette tip or left unscratched and treated with 1 μM phorbol 12-myristate 13-acetate (PMA, Sigma-Aldrich), rCAP37 (25-500 ng/ml), or basal KSFM (Gibco) for 15 minutes. After treatment, the cells were fixed in 4% (v/v) formaldehyde solution (Thermo, Rockford, Ill.) in PBS (Gibco) for 20 minutes at room temperature followed by permeabilization in 0.5% TRITON™-X 100 (Mallinckrodt, St. Louis, Mo.) in PBS for 10 minutes. Remaining formaldehyde was quenched with 0.05 M ammonium chloride (NH4Cl, Sigma-Aldrich, St. Louis, Mo.) in PBS for 10 minutes. […]

Question: What does the source list for `CC[C@H](C)[C@H](NC(=O)[C@H](CC(C)C)NC(=O)[C@H](C)NC(=O)CNC(=O)CNC(=O)[C@H](CO)NC(=O)[C@H](Cc1ccccc1)NC(=O)[C@H](Cc1c[nH]cn1)NC(=O)[C@H](CCCNC(=N)N)NC(=O)CNC(=O)[C@H](CCC(N)=O)NC(=O)[C@H](CC(N)=O)NC(=O)[C@H](CCCNC(=N)N)NC(=O)[C@H](CCCNC(=N)N)NC(=O)[C@H](CCCNC(=N)N)NC(=O)[C@H](CCCNC(=N)N)NC(=O)CCOCCOCCNC(=O)CCOCCOCCN)C(=O)N[C@@H](Cc1c[nH]cn1)C(=O)N[C@@H](C)C(=O)N[C@@H](CCCNC(=N)N)C(=O)N[C@@H](Cc1ccccc1)C(=O)N[C@H](C(=O)N[C@@H](CCSC)C(=O)N[C@H](C(=O)N[C@@H](C)C(=O)N[C@@H](C)C(=O)N[C@@H](CO)C(=O)N[C@@H](CS)C(=O)N[C@@H](Cc1ccccc1)C(=O)N[C@@H](CCC(N)=O)C(=O)N[C@@H](CCCNC(=N)N)C(=O)O)[C@@H](C)O)C(C)C` [BCC02-5RMP] (H-[PEG2][PEG2]RRRRNQGRHFSGGALIHARFVMTAASCFQR-OH; C-terminus assumed)?
Answer: in vitro bactericidal activity, in words [1]: most active; in vitro bactericidal activity, in words [2]: strong, but lesser activity; in vitro bactericidal activity, in words [3]: strong, but lesser activity; in vitro bactericidal activity, in words [4]: most active; binding of Pseudomonas LPS [5]: bound Pseudomonas LPS; neutralization of LPS: attenuation of TNF-α release [6]: attenuate the release of TNF-α; CFU/eye, in words [7]: effectively killed all bacteria and cured the infection; sensitivity of the bacterium to Cefotaxime with peptide, in words ([8]; 3.04 μg/ml of peptide with Cefotaxime 2.81 μg/ml): now sensitive; effect of peptide on the killing effect of Cefotaxime, in words ([8]; 0.34 and 1.0 μg/ml of peptide with Cefotaxime 2.81 μg/ml): no statistical effect

Question: With `CCCCCCCCCCCCCC(=O)O[C@@H]1[C@@H](C)[C@@]2(O)[C@@H](C=C(CO)C[C@]3(O)C(=O)C(C)=C[C@@H]23)[C@@H]2C(C)(C)[C@]12OC(C)=O` [PMA, phorbol 12-myristate 13-acetate, reference compound] as the compound, how does the “PKCδ staining, in words” value [9] read?
Answer: increased staining
